Reference: patent US11572399B2, “Long-acting GIP peptide analogues” (University of Copenhagen, priority 2017, dated 2023)
Like-named read-outs stand apart in the source and are kept apart here. Numbered stars: 1 amine (or outer) side, 2 acyl side, 3 side chain; on linkers, the order of the positions; unused ones are H or OH. Side chains are listed from the residue outwards. Peptide text beside a SMILES is read from it. * marks the point of attachment. C16 diacid = O=C(O)CCCCCCCCCCCCCCC(=O)*; γGlu = O=C(O)[C@H](CCC(=O)[*:2])N[*:1]; Palmitoyl = CCCCCCCCCCCCCCCC(=O)*; βAla = NCCC(=O)O

Tests used:
human GIP receptor [1] = target: T1, human GIP receptor (Homo sapiens, UniProt P48546); assay: 125I-human GIP competition binding assay, in the presence and absence of 2% HSA; conditions: for Fold change in affinity, IC50 (plus HSA)/IC50 (minus HSA): presence vs absence of 2% HSA, proxy for albumin binding;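 for all read-outs here: nonspecific binding taken as radioligand bound to untransfected cells, IC50 obtained from nonlinear regression fits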
T1 construct: host or cells: COS-7, transient transfection (calcium phosphate), cDNA in pCMV-Script
T1 sequence (P48546 22-466): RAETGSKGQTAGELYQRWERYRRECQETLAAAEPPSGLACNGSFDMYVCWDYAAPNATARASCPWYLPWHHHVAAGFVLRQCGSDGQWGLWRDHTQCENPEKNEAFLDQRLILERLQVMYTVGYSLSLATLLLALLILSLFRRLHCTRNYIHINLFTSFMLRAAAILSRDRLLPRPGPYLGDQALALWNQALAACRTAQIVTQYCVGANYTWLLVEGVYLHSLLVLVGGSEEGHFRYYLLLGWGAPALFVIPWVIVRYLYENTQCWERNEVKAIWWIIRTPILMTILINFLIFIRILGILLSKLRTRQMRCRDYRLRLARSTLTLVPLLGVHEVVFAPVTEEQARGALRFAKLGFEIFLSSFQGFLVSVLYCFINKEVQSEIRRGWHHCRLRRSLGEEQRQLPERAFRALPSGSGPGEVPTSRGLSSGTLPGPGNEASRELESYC

[2] = Elimination half-life (T1/2) estimated in pigs, subcutaneous, RIA; type: in vivo; conditions: pig; for half-life: plasma, sc, pigs, subcutaneous 1-10 nmol/kg
Procedure: LYH/LYD strain pigs or mini-pigs were housed in the animal facility at the Faculty of Health and Medical Sciences.
A pig was subcutaneously administered one of the lipidated GIP(3-30)NH2 analogs (compound AT117) (1-10 nmol/kg, total volume 2-6 mL) after which 10-18 blood samples were collected before and up to 57 hours post subcutaneous administration) from a central venous catheter. The catheter was flushed with saline and heparin between samples. Blood was collected into cold EDTA tubes, centrifuged and plasma was kept at −20° C. pending analyses. When experiments are completed, the animals will be killed.
Concentrations of the lipidated GIP(3-30)NH2 or GIP(5-30)NH2 analogues in blood samples from pigs were analysed by RIA. Analogues' immunoreactivity was determined using antiserum Ab95234, Ab95235, Ab95236, a polyclonal in-house antibody raised in rabbits specific for either the mid region of GIP(1-30)NH2 or amidated C-terminus of GIP(3-30)NH2.

human GIP receptor [3] = target: T1, human GIP receptor; assay: cAMP accumulation assay, antagonism of a GIP-mediated cAMP response (50-80% of max); type: cell-based; conditions: for IC50: transiently transfected COS-7 cells
Procedure: The day after, the cells were washed twice with Hepes buffered saline (HBS) buffer and incubated with HBS and 1 mM 3-isobutyl-1-methylxanthine (IBMX) for 30 min at 37° C. […] The HitHunter™ cAMP XS assay (DiscoveRx) was carried out according to the manufacturer's instructions.

human GIP receptor [4] = target: T1, human GIP receptor; assay: cAMP accumulation assay, agonism (ligand alone); type: cell-based; conditions: COS-7 cells, Table 1; for Emax: COS-7, intrinsic cAMP activity
[5] = Solubility of linker analogues; type: physicochemical; conditions: read-out: Solubility, obtainable concentration
[6] = pigs, previously showed; cited from earlier work
[7] = humans, previously determined; cited from earlier work

## CC[C@H](C)[C@H](NC(=O)[C@H](CO)NC(=O)[C@H](Cc1ccc(O)cc1)NC(=O)[C@H](CC(=O)O)NC(=O)[C@H](CO)NC(=O)[C@@H](NC(=O)[C@H](Cc1ccccc1)NC(=O)[C@@H](NC(=O)CNC(=O)[C@@H](N)CCC(=O)O)[C@@H](C)O)[C@@H](C)CC)C(=O)N[C@@H](C)C(=O)N[C@@H](CCSC)C(=O)N[C@@H](CC(=O)O)C(=O)N[C@@H](CCCNC(=N)N)C(=O)N[C@H](C(=O)N[C@@H](CCCCNC(=O)CCCCCCCCCCCCCCC(=O)O)C(=O)N[C@@H](CCC(N)=O)C(=O)N[C@@H](CCC(N)=O)C(=O)N[C@@H](CC(=O)O)C(=O)N[C@@H](Cc1ccccc1)C(=O)N[C@H](C(=O)N[C@@H](CC(N)=O)C(=O)N[C@@H](Cc1c[nH]c2ccccc12)C(=O)N[C@@H](CC(C)C)C(=O)N[C@@H](CC(C)C)C(=O)N[C@@H](C)C(=O)N[C@@H](CCC(N)=O)C(=O)N[C@@H](CCCNC(=N)N)C(N)=O)C(C)C)[C@@H](C)CC [AT159, [hGIP(3-30)NH2[K16R; H18K; K30R]-C16diacid/18]] (H-EGTFISDYSIAMDRIK(C16 diacid)QQDFVNWLLAQR-NH2; N-terminus assumed)
Human GIP receptor [1]; 0.1% casein, no HSA, Table 3b, read-out: Binding logIC50 0.1% casein (converted)
  IC50: 25 nM
Human GIP receptor [1]; Table 3b, initial data, read-out: Binding IC50
  IC50: 25 nM
Human GIP receptor [1]; fold decrease in affinity compared to GIP(3-30)NH2, Table 3b
  Binding fold (paired): 3 fold
Human GIP receptor [1]; heterologous competition binding, transiently transfected COS-7 cells expressing the human GIP receptor, read-out: Binding
  IC50: 18 nM
Human GIP receptor [1]
  Fold change in affinity, IC50 (plus HSA)/IC50 (minus HSA): 0.8 fold
[2]
  half-life: 6 h
Human GIP receptor [3]; fold vs GIP(3-30)NH2, Table 3b
  cAMP - antagonisme fold (paired): 0.1 fold
Human GIP receptor [3]; Table 1 and text, read-out: cAMP antagonism nM (IC50, antagonistic potency)
  IC50: 6 nM
Human GIP receptor [4]
  Emax: 6%
Human GIP receptor [4]; read-out: cAMP agonism nM (EC50)
  EC50: 2 nM

## CCCCCCCCCCCCCCCC(=O)N[C@@H](CCC(=O)NCCCC[C@H](NC(=O)[C@@H](NC(=O)[C@H](CCCCN)NC(=O)[C@H](CC(=O)O)NC(=O)[C@H](CCSC)NC(=O)[C@H](C)NC(=O)[C@@H](NC(=O)[C@H](CO)NC(=O)[C@H](Cc1ccc(O)cc1)NC(=O)[C@H](CC(=O)O)NC(=O)[C@H](CO)NC(=O)[C@@H](NC(=O)[C@H](Cc1ccccc1)NC(=O)[C@@H](NC(=O)CNC(=O)[C@@H](N)CCC(=O)O)[C@@H](C)O)[C@@H](C)CC)[C@@H](C)CC)[C@@H](C)CC)C(=O)N[C@@H](CCC(N)=O)C(=O)N[C@@H](CCC(N)=O)C(=O)N[C@@H](CC(=O)O)C(=O)N[C@@H](Cc1ccccc1)C(=O)N[C@H](C(=O)N[C@@H](CC(N)=O)C(=O)N[C@@H](Cc1c[nH]c2ccccc12)C(=O)N[C@@H](CC(C)C)C(=O)N[C@@H](CC(C)C)C(=O)N[C@@H](C)C(=O)N[C@@H](CCC(N)=O)C(=O)N[C@@H](CCCCN)C(N)=O)C(C)C)C(=O)O [AT164, [hGIP(3-30)NH2[H18K]-C16/18+y-glutamic acid]] (H-EGTFISDYSIAMDKIK([γGlu-Palmitoyl])QQDFVNWLLAQK-NH2; N-terminus assumed)
Human GIP receptor [3]; Table 5
  Fold change from GIP(3-30)NH2 (increase in potency): 6.3 fold
[5]
  solubility: ≥ 200 µM

## CCCCCCCCCCCCCCCC(=O)NCCC(=O)NCCCC[C@H](NC(=O)[C@@H](NC(=O)[C@H](CCCCN)NC(=O)[C@H](CC(=O)O)NC(=O)[C@H](CCSC)NC(=O)[C@H](C)NC(=O)[C@@H](NC(=O)[C@H](CO)NC(=O)[C@H](Cc1ccc(O)cc1)NC(=O)[C@H](CC(=O)O)NC(=O)[C@H](CO)NC(=O)[C@@H](NC(=O)[C@H](Cc1ccccc1)NC(=O)[C@@H](NC(=O)CNC(=O)[C@@H](N)CCC(=O)O)[C@@H](C)O)[C@@H](C)CC)[C@@H](C)CC)[C@@H](C)CC)C(=O)N[C@@H](CCC(N)=O)C(=O)N[C@@H](CCC(N)=O)C(=O)N[C@@H](CC(=O)O)C(=O)N[C@@H](Cc1ccccc1)C(=O)N[C@H](C(=O)N[C@@H](CC(N)=O)C(=O)N[C@@H](Cc1c[nH]c2ccccc12)C(=O)N[C@@H](CC(C)C)C(=O)N[C@@H](CC(C)C)C(=O)N[C@@H](C)C(=O)N[C@@H](CCC(N)=O)C(=O)N[C@@H](CCCCN)C(N)=O)C(C)C [AT166, [hGIP(3-30)NH2[H18K]-C16/18+β-alanine]] (H-EGTFISDYSIAMDKIK([βAla-Palmitoyl])QQDFVNWLLAQK-NH2; N-terminus assumed)
Human GIP receptor [3]; Table 5
  Fold change from GIP(3-30)NH2 (increase in potency): 2.9 fold
[5]
  solubility: ≤ 63.2 µM

## CC[C@H](C)[C@H](NC(=O)[C@H](CCCCN)NC(=O)[C@H](CC(=O)O)NC(=O)[C@H](CCSC)NC(=O)[C@H](CCCCNC(=O)CCCCCCCCCCCCCCC(=O)O)NC(=O)[C@@H](NC(=O)[C@H](CO)NC(=O)[C@H](Cc1ccc(O)cc1)NC(=O)[C@H](CC(=O)O)NC(=O)[C@H](CO)NC(=O)[C@@H](NC(=O)[C@H](Cc1ccccc1)NC(=O)[C@@H](N)[C@@H](C)O)[C@@H](C)CC)[C@@H](C)CC)C(=O)N[C@@H](Cc1c[nH]cn1)C(=O)N[C@@H](CCC(N)=O)C(=O)N[C@@H](CCC(N)=O)C(=O)N[C@@H](CC(=O)O)C(=O)N[C@@H](Cc1ccccc1)C(=O)N[C@H](C(=O)N[C@@H](CC(N)=O)C(=O)N[C@@H](Cc1c[nH]c2ccccc12)C(=O)N[C@@H](CC(C)C)C(=O)N[C@@H](CC(C)C)C(=O)N[C@@H](C)C(=O)N[C@@H](CCC(N)=O)C(=O)N[C@@H](CCCCN)C(N)=O)C(C)C [AT175, [hGIP(5-30)NH2[A13K]-C16diacid/13]] (H-TFISDYSIK(C16 diacid)MDKIHQQDFVNWLLAQK-NH2; N-terminus assumed)
Human GIP receptor [1]; IC50 (plus HSA)/IC50 (minus HSA)
  Fold change HSA (2%)/Casein (0.1%): 7.8
Human GIP receptor [1]; absence of HSA
  Ki: 53 nM
Human GIP receptor [1]; binding in 0.1% casein (absence of HSA), log value, read-out: logIC50 0.1% casein (converted)
  IC50: 79.4 nM
Human GIP receptor [1]; binding in presence of 2% HSA, read-out: logIC50 2% HSA (converted)
  IC50: 562 nM
Human GIP receptor [1]; fold change +HSA/−HSA
  Binding (+/−HSA) Fold: 9.4
Human GIP receptor [1]
  Fold change in affinity, IC50 (plus HSA)/IC50 (minus HSA): 7.8 fold
[2]
  half-life: 6 h
[2]; subcutaneous
  T½: 6 h
Human GIP receptor [3]
  Ability to antagonize the GIP-mediated cAMP response (in words): highest antagonistic potencies
Human GIP receptor [3]; fold change of IC50 from GIP(5-30)NH2
  Fold change of IC50 versus GIP(5-30)NH2: 0.5
Human GIP receptor [4]
  Emax: 0%

## CC[C@H](C)[C@H](NC(=O)[C@H](CO)NC(=O)[C@H](Cc1ccc(O)cc1)NC(=O)[C@H](CC(=O)O)NC(=O)[C@H](CO)NC(=O)[C@@H](NC(=O)[C@H](Cc1ccccc1)NC(=O)[C@@H](NC(=O)CNC(=O)[C@@H](N)CCC(=O)O)[C@@H](C)O)[C@@H](C)CC)C(=O)N[C@@H](C)C(=O)N[C@@H](CCSC)C(=O)N[C@@H](CC(=O)O)C(=O)N[C@@H](CCCCN)C(=O)N[C@H](C(=O)N[C@@H](Cc1c[nH]cn1)C(=O)N[C@@H](CCC(N)=O)C(=O)N[C@@H](CCC(N)=O)C(=O)N[C@@H](CC(=O)O)C(=O)N[C@@H](Cc1ccccc1)C(=O)N[C@H](C(=O)N[C@@H](CC(N)=O)C(=O)N[C@@H](Cc1c[nH]c2ccccc12)C(=O)N[C@@H](CC(C)C)C(=O)N[C@@H](CC(C)C)C(=O)N[C@@H](C)C(=O)N[C@@H](CCC(N)=O)C(=O)N[C@@H](CCCCN)C(N)=O)C(C)C)[C@@H](C)CC [hGIP(3-30)NH2, reference compound]
Human GIP receptor [3]; cAMP antagonism log, given as log IC50 (negative sign), Table 1
  IC50: 63.1 nM
Human GIP receptor [3]; cAMP antagonism nM (IC50, antagonistic potency), Table 1 and text
  IC50: 65 nM
Human GIP receptor [3]; given as log IC50 (negative sign), linker analogues, n=2, Table 5
  cAMP accumulation logIC50 ± SEM: −7.19 ± 0.10
[6]
  T1/2: 7.5 min
[7]
  T1/2: 7.5 min
